PubChem BioAssay (NCI)
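1) Cells in 96-well plates. 2) Compound, 48 h, 5 concentrations. 3) Linear interpolation between surrounding doses. 4) Unreached endpoint = highest concentration. GI50 is the concentration that inhibits growth by half. TGI is the concentration that stops growth completely.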

How the values were obtained:
Experiment in all cases: NCI tumour cell line growth inhibition, 48 h
786-0 renal = tested on: 786-0 renal
A549 NSCLC = tested on: A549 NSCLC
CAKI-1 renal = tested on: CAKI-1 renal
CCRF-CEM leukemia = tested on: CCRF-CEM leukemia
COLO 205 colon = tested on: COLO 205 colon
DU-145 prostate = tested on: DU-145 prostate
EKVX NSCLC = tested on: EKVX NSCLC
HCC-2998 colon = tested on: HCC-2998 colon
HCT-15 colon = tested on: HCT-15 colon
HL-60(TB) leukemia = tested on: HL-60(TB) leukemia
HOP-62 NSCLC = tested on: HOP-62 NSCLC
HOP-92 NSCLC = tested on: HOP-92 NSCLC
HS 578T breast = tested on: HS 578T breast
HT29 colon = tested on: HT29 colon
IGROV1 ovarian = tested on: IGROV1 ovarian
K-562 leukemia = tested on: K-562 leukemia
KM12 colon = tested on: KM12 colon
LOX IMVI melanoma = tested on: LOX IMVI melanoma
M14 melanoma = tested on: M14 melanoma
MCF7 breast = tested on: MCF7 breast
MDA-MB-435 = tested on: MDA-MB-435
NCI-H226 lung = tested on: NCI-H226 lung
NCI-H23 lung = tested on: NCI-H23 lung
NCI-H460 lung = tested on: NCI-H460 lung
NCI-H522 lung = tested on: NCI-H522 lung
NCI/ADR-RES ovarian = tested on: NCI/ADR-RES ovarian
OVCAR-3 ovarian = tested on: OVCAR-3 ovarian
OVCAR-4 ovarian = tested on: OVCAR-4 ovarian
OVCAR-5 ovarian = tested on: OVCAR-5 ovarian
OVCAR-8 ovarian = tested on: OVCAR-8 ovarian
RPMI-8226 leukemia = tested on: RPMI-8226 leukemia
RXF 393 renal = tested on: RXF 393 renal
SF-268 CNS = tested on: SF-268 CNS
SF-295 CNS = tested on: SF-295 CNS
SF-539 CNS = tested on: SF-539 CNS
SK-MEL-2 melanoma = tested on: SK-MEL-2 melanoma
SK-MEL-5 melanoma = tested on: SK-MEL-5 melanoma
SK-OV-3 ovarian = tested on: SK-OV-3 ovarian
SNB-19 CNS = tested on: SNB-19 CNS
SNB-75 CNS = tested on: SNB-75 CNS
SR leukemia = tested on: SR leukemia
SW-620 colon = tested on: SW-620 colon
T-47D breast = tested on: T-47D breast
TK-10 renal = tested on: TK-10 renal
U251 CNS = tested on: U251 CNS
UACC-257 melanoma = tested on: UACC-257 melanoma
A498 renal = tested on: A498 renal
ACHN renal = tested on: ACHN renal
HCT-116 colon = tested on: HCT-116 colon
MALME-3M melanoma = tested on: MALME-3M melanoma
MDA-MB-231 breast = tested on: MDA-MB-231 breast
PC-3 prostate = tested on: PC-3 prostate
SK-MEL-28 melanoma = tested on: SK-MEL-28 melanoma
SN12C renal = tested on: SN12C renal
UACC-62 melanoma = tested on: UACC-62 melanoma
UO-31 renal = tested on: UO-31 renal

## COc1cnc2c(c1)C(=O)c1c-2n(CCCN2CCN(C)CC2)c(=O)c2cc([N+](=O)[O-])ccc12
786-0 renal
  GI50: 1640 nM
  TGI: 3130 nM
A549 NSCLC
  GI50: 128 nM
  TGI: 337 nM
CAKI-1 renal
  GI50: 1340 nM
  TGI: 2800 nM
CCRF-CEM leukemia
  GI50: 68.3 nM
  TGI: 834 nM
COLO 205 colon
  GI50: 1640 nM
  TGI: 3380 nM
DU-145 prostate
  GI50: 220 nM
  TGI: 587 nM
EKVX NSCLC
  GI50: 514 nM
  TGI: 2050 nM
HCC-2998 colon
  GI50: 14600 nM
  TGI: 27700 nM
HCT-15 colon
  GI50: 249 nM
  TGI: 1260 nM
HL-60(TB) leukemia
  GI50: 168 nM
  TGI: 372 nM
HOP-62 NSCLC
  GI50: 81.3 nM
  TGI: 392 nM
HOP-92 NSCLC
  GI50: 1820 nM
  TGI: 4370 nM
HS 578T breast
  GI50: 14500 nM
  TGI: 31000 nM
HT29 colon
  GI50: 167 nM
  TGI: 352 nM
IGROV1 ovarian
  GI50: 351 nM
  TGI: 2260 nM
K-562 leukemia
  GI50: 154 nM
  TGI: 395 nM
KM12 colon
  GI50: 2110 nM
  TGI: 7800 nM
LOX IMVI melanoma
  GI50: 180 nM
  TGI: 396 nM
M14 melanoma
  GI50: 131 nM
  TGI: 370 nM
MCF7 breast
  GI50: 16.2 nM
  TGI: 1200 nM
MDA-MB-435
  GI50: 166 nM
  TGI: 334 nM
NCI-H226 lung
  GI50: 13700 nM
  TGI: 35800 nM
NCI-H23 lung
  GI50: 362 nM
  TGI: 2600 nM
NCI-H460 lung
  GI50: 135 nM
  TGI: 365 nM
NCI-H522 lung
  GI50: 479 nM
  TGI: 2390 nM
NCI/ADR-RES ovarian
  GI50: 323 nM
  TGI: 5820 nM
OVCAR-3 ovarian
  GI50: 171 nM
  TGI: 359 nM
OVCAR-4 ovarian
  GI50: 1460 nM
  TGI: 3310 nM
OVCAR-5 ovarian
  GI50: 22100 nM
  TGI: 46500 nM
OVCAR-8 ovarian
  GI50: 1190 nM
  TGI: 6960 nM
RPMI-8226 leukemia
  GI50: 226 nM
  TGI: 917 nM
RXF 393 renal
  GI50: 11400 nM
  TGI: 30400 nM
SF-268 CNS
  GI50: 206 nM
  TGI: 1640 nM
SF-295 CNS
  GI50: 69.8 nM
  TGI: 483 nM
SF-539 CNS
  GI50: 191 nM
  TGI: 386 nM
SK-MEL-2 melanoma
  GI50: 11000 nM
  TGI: 23200 nM
SK-MEL-5 melanoma
  GI50: 1310 nM
  TGI: 2640 nM
SK-OV-3 ovarian
  GI50: 1800 nM
  TGI: 3590 nM
SNB-19 CNS
  GI50: 399 nM
  TGI: 5010 nM
SNB-75 CNS
  GI50: 1550 nM
  TGI: 2950 nM
SR leukemia
  GI50: 24.9 nM
  TGI: 365 nM
SW-620 colon
  GI50: 22.7 nM
  TGI: 1380 nM
T-47D breast
  GI50: 1770 nM
  TGI: 4010 nM
TK-10 renal
  GI50: 237 nM
  TGI: 715 nM
U251 CNS
  GI50: 165 nM
  TGI: 386 nM
UACC-257 melanoma
  GI50: 2460 nM
  TGI: 5870 nM

## Cc1cn(-c2cc(F)cc(NC(=O)c3ccc(C)c(Nc4nccc(-c5cccnc5)n4)c3)c2)cn1
A498 renal
  GI50: > 100000 nM
  TGI: > 100000 nM
HL-60(TB) leukemia
  GI50: > 100000 nM
  TGI: > 100000 nM
SK-MEL-5 melanoma
  GI50: > 100000 nM
  TGI: > 100000 nM

## OC(c1cc2ccc(C(F)(F)F)cc2c2cc(C(F)(F)F)ccc12)C1CCCCN1 (configuration not stated)
786-0 renal
  TGI: 2980 nM
A549 NSCLC
  TGI: 3260 nM
ACHN renal
  TGI: 2620 nM
CAKI-1 renal
  TGI: 3130 nM
COLO 205 colon
  TGI: 3050 nM
DU-145 prostate
  TGI: 3210 nM
HCC-2998 colon
  TGI: 2620 nM
HCT-116 colon
  TGI: 2800 nM
HL-60(TB) leukemia
  TGI: > 100000 nM
HOP-92 NSCLC
  TGI: 3190 nM
HT29 colon
  TGI: 3400 nM
MALME-3M melanoma
  TGI: 1500 nM
MDA-MB-231 breast
  TGI: 3200 nM
NCI-H522 lung
  TGI: 3160 nM
OVCAR-5 ovarian
  TGI: 3180 nM
OVCAR-8 ovarian
  GI50: 1860 nM
  TGI: 3740 nM
PC-3 prostate
  TGI: 2920 nM
SF-295 CNS
  GI50: 1830 nM
  TGI: 3410 nM
SK-MEL-28 melanoma
  TGI: 3360 nM
SK-MEL-5 melanoma
  TGI: 2890 nM
SK-OV-3 ovarian
  TGI: 3820 nM
SN12C renal
  TGI: 3260 nM
SNB-75 CNS
  TGI: 2570 nM
SR leukemia
  TGI: 4990 nM
SW-620 colon
  TGI: 2840 nM
TK-10 renal
  TGI: 3710 nM
UACC-62 melanoma
  TGI: 3490 nM
UO-31 renal
  TGI: 2710 nM

## CNc1ccc(C(=O)CC(O)CCC(C)C2OC(=O)CC(O)CC(=O)CC(O)CC(O)CC(O)CC(O)CC3(O)CC(O)C(C(=O)NCCN4CCCCC4)C(CC(OC4OC(C)C(O)C(N)C4O)/C=C/C=C/C=C/C=C\C=C/C=C/C=C/C2C)O3)cc1 (configuration not stated)
HL-60(TB) leukemia
  TGI: > 100000 nM
K-562 leukemia
  TGI: > 100000 nM

## C=C(CNCCc1ccc(O)cc1)[C@@H]1CC[C@]2(COC3CCCCO3)CC[C@]3(C)[C@H](CC[C@@H]4[C@@]5(C)CCC(NCCO)C(C)(C)[C@@H]5CC[C@]43C)[C@@H]12 (some centres not stated)
A498 renal
  GI50: 1330 nM
  TGI: 2720 nM
ACHN renal
  GI50: 1640 nM
  TGI: 3040 nM
CAKI-1 renal
  GI50: 1520 nM
  TGI: 2860 nM
DU-145 prostate
  GI50: 1250 nM
  TGI: 2580 nM
HCT-15 colon
  GI50: 390 nM
  TGI: 1490 nM
MDA-MB-435
  GI50: 1350 nM
  TGI: 2650 nM
NCI-H460 lung
  GI50: 339 nM
  TGI: 1070 nM
OVCAR-3 ovarian
  GI50: 1280 nM
  TGI: 2770 nM
OVCAR-4 ovarian
  GI50: 1390 nM
  TGI: 2820 nM
OVCAR-5 ovarian
  GI50: 1670 nM
  TGI: 3130 nM
SW-620 colon
  GI50: 211 nM
  TGI: 453 nM
